Measured values: patent US8283345B2, “Azetidine analogues of nucleosidase and phosphorylase inhibitors” (Industrial Research Limited, priority 2006, dated 2012)
Structures can show the parent of a compound that is named as a salt. Where two headings read alike, the source gives them in different places. Each block holds one compound with its values, some of them ahead of it.

What was measured:
[1] = biological target: T1, Human PNP (Homo sapiens, UniProt P00491); experiment: PNP inhibition, xanthine oxidase coupled assay; assay type: biochemical; conditions: inosine Km 40 μM
T1 sequence (P00491 1-289): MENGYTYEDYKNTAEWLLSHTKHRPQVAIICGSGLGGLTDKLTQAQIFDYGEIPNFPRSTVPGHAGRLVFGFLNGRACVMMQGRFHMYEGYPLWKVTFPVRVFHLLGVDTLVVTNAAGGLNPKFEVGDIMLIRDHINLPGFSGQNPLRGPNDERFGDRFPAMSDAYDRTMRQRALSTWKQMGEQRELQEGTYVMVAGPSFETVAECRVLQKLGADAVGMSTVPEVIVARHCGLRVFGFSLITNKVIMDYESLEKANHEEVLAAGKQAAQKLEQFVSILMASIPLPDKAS
Method: (§2) PNP and MTAN/MTAP activities were monitored by xanthine oxidase coupled assays, as previously described [Biochemistry, 2006, 45, 12929-12941; Biochemistry, 1998, 37, 8615-8621]. […] Michaelis constants used in data fitting were as follows: 40 μM, 34 μM, and 5 μM for inosine with human, bovine, and P. falciparum PNPs, respectively; 5 μM, 0.43 μM, and 23 μM for MTA with human MTAP, E. coli MTAN, and S. pneumoniae MTAN, respectively.

[2] = biological target: T2, Bovine PNP (Bos taurus, UniProt P55859); experiment: PNP inhibition, xanthine oxidase coupled assay; assay type: biochemical
T2 sequence (P55859 1-289): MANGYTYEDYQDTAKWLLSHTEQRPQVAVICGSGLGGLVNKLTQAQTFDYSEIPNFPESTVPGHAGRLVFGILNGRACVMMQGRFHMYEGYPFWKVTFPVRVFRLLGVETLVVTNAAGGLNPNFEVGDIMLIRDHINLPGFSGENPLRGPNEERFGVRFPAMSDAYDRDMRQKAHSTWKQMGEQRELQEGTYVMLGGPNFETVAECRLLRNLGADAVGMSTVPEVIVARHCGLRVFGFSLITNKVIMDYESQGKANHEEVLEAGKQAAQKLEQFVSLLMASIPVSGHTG
Method: as §2

[3] = biological target: T3, P. falciparum PNP (Plasmodium falciparum, UniProt Q8I3X4); experiment: biochemical
T3 sequence (Q8I3X4 1-245): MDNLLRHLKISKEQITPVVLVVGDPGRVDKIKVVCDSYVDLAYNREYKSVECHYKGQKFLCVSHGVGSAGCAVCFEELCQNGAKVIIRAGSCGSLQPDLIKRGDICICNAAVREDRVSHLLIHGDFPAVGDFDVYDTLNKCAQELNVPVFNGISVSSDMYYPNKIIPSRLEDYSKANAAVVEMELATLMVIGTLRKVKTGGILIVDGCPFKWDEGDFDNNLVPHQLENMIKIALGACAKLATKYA
Method: as §2

[4] = biological target: T4, Human MTAP (Homo sapiens, UniProt Q13126); experiment: MTAP inhibition, xanthine oxidase coupled assay; assay type: biochemical; conditions: MTA Km 5 μM
T4 sequence (Q13126 1-283): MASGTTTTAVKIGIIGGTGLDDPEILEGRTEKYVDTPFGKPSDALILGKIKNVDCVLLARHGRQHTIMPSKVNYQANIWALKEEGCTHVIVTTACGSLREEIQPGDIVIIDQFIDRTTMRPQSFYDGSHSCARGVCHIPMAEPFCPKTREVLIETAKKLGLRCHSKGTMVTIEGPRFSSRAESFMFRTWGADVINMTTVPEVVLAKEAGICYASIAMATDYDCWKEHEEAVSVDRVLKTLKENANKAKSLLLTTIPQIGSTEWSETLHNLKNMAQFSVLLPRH

[5] = biological target: E. coli MTAN (Escherichia coli, UniProt P0AF12); experiment: MTAN inhibition, xanthine oxidase coupled assay; assay type: biochemical; conditions: MTA Km 0.43 μM
Method: (§1) For PNP assays, inosine and inhibitor concentrations were determined spectrophotometrically using an ε260 of 7.1 mM^−1 cm^−1 (pH 6) [Dawson' et al, Data for Biochemical Research, 3rd ed., 1986, Clarendon Press, Oxford, U.K.] and an ε261 of 9.54 mM^−1 cm^−1 (pH 7) [Lim, M.-I.; Ren, Y.-Y.; Otter, B. A.; Klein, R. S., J. Org. Chem. 1983, 48, 780-788], respectively. For MTAN/MTAP assays, methylthioadenosine and inhibitor concentrations were determined using an ε260 of 14.9 mM^−1 cm^−1 (pH 6) [Dawson et al, as above] and an ε275 of 8.5 mM^−1 cm^−1 (pH 7), [J. Org. Chem. 1983, 48, 780-788] respectively. PNP and MTAN/MTAP activities were monitored by xanthine oxidase coupled assays, as previously described [Biochemistry, 2006, 45, 12929-12941; Biochemistry, 1998, 37, 8615-8621]. In all cases, the inhibitor concentration was at least 10-fold greater than the enzyme concentration, as required for simple analysis of slow-onset tight-binding inhibition [Morrison, J. F.; Walsh, C. T. Adv. Enzymol. Relat. Areas Mol. Biol., 1988, 61, 201-301] Michaelis constants used in data fitting were as follows: 40 μM, 34 μM, and 5 μM for inosine with human, bovine, and P. falciparum PNPs, respectively; 5 μM, 0.43 μM, and 23 μM for MTA with human MTAP, E. coli MTAN, and S. pneumoniae MTAN, respectively.

[6] = biological target: S. pneumoniae MTAN (Streptococcus pneumoniae, UniProt Q8DQ16); experiment: MTAN inhibition, xanthine oxidase coupled assay; assay type: biochemical; conditions: MTA Km 23 μM
S. pneumoniae MTAN, sequence (Q8DQ16 entry or part of it): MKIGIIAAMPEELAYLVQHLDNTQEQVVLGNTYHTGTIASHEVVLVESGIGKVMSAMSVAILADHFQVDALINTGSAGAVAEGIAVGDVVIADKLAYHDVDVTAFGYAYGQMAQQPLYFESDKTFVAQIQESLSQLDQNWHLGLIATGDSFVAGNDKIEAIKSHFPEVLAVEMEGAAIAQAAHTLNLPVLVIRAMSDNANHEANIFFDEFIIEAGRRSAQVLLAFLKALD
Method: as §1

[7] = inhibition constant Ki, read-out: Ki Human PNP
[8] = inhibition constant Ki, inosine Km 34 μM, read-out: Ki Bovine PNP

- Ki [1, 7]: 6.3 nM
- Ki [2, 8]: 4.8 nM
- Ki ([3]; read-out: Ki P. falciparum PNP): > 10000 nM
Compound: O=c1[nH]cnc2c(CN3CC(CO)C3)c[nH]c12 [Compound 19, 1-[(9-Deazahypoxanthin-9-yl)methyl]azetindine-3-methanol]

- Ki ([1]; Ki Human PNP, inhibition constant Ki): 1.8 nM
- Ki ([1]; Ki* Human PNP, Ki*, slow-onset tight-binding inhibition): 0.26 nM
- Ki [2]: 1.8 nM
Compound: O=c1[nH]cnc2c(CN3CCC3CO)c[nH]c12 (racemic) [(±)-43, (±)7-((2-(Hydroxymethyl)azetidin-1-yl)methyl)-5H-pyrrolo[3,2-d]pyrimidin-4-ol]

Compound: CSCC1CN(Cc2c[nH]c3c(N)ncnc23)C1 [Compound 22, 1-[(9-Deazaadenin-9-yl)methyl]-3-methylthiomethylazetidine]
- Ki [4]: 2 nM
- Ki [5]: 0.45 nM
- Ki [6]: 84 nM

Compound: O=c1[nH]cnc2c(CN3[C@H](CO)C[C@@H]3CO)c[nH]c12 [Compound 36, meso-[(9-Deazahypoxanthin-9-yl)methyl]azetidine-2,4-dimethanol hydrochloride]
- Ki [1, 7]: 12.9 nM
- Ki [2, 8]: 16 nM
- Ki [3]: 1290 nM

Compound: O=c1[nH]cnc2c(CN3[C@H](CO)C[C@H]3CO)c[nH]c12 (racemic) [(±)-37, (±)2,4-trans-[(9-Deazahypoxanthin-9-yl)methyl]azetidine-2,4-dimethanol hydrochloride]
- Ki [1, 7]: 280 nM
- Ki [2, 8]: 360 nM
- Ki [3]: 580 nM

Compound: CSCC1(CO)CN(Cc2c[nH]c3c(N)ncnc23)C1 [Compound 21, 1-[(9-Deazaadenin-9-yl)methyl]-3-methylthiomethylazetidine-3-methanol hydrochloride]
- Ki [4]: 140 nM
- Ki [5]: 0.84 nM
- Ki [6]: 150 nM

- Ki [1, 7]: 0.229 nM
- Ki [2]: 0.065 nM
- Ki ([2]; Ki*, slow-onset tight-binding inhibition, inosine Km 34 μM, read-out: Ki* Bovine PNP): 0.236 nM
- Ki [3]: > 10000 nM
Compound: O=c1[nH]cnc2c(CN3CC(CO)(CO)C3)c[nH]c12 [Compound 18, 1-[(9-Deazahypoxanthin-9-yl)methyl]azetidine-3,3-dimethanol]
